The results in this text go back to US20250127761A1, “Telmisartan Nanosuspension for Therapy of Respiratory Infections and Methods of Making and Using Same” (Soligenix, Inc., priority 2022, published 2025).

The subject of one data set is ANG II type 1 receptor. Kind of data set: Inhibition of ANG II-mediated intracellular calcium spike in lung smooth muscle cells. The format is cell-based.
For data set [1] the following is noted: cynomolgus monkey, in vivo.

Regarding `CCCc1nc2c(C)cc(-c3nc4ccccc4n3C)cc2n1Cc1ccc(-c2ccccc2C(=O)O)cc1` [FD-TEL, telmisartan], the “ANG II-mediated transient [Ca2+]i spike” value in the data set on ANG II type 1 receptor is “equally and entirely abrogated”. The creatine kinase result in data set [1] was “significant increase”.
